Source: ChEMBL document CHEMBL3112412, “Synthesis and receptor binding studies of some new arylcarboxamide derivatives as sigma-1 ligands” (Bioorg Med Chem Lett, 2014)

Key:
[1] = target: Sigma non-opioid intracellular receptor 1 (Rattus norvegicus, UniProt Q9R0C9); assay: Displacement of [3H](+)-pentazocine from sigma 1 receptor in rat liver homogenate after 120 mins by liquid scintillation counting; assay type: tissue-based
[2] = Selectivity ratio of Ki for sigma 2 receptor in guinea pig brain to Ki for sigma 1 receptor in rat liver homogenate; assay type: tissue-based
[3] = Displacement of [3H]-DTG from sigma 2 receptor in guinea pig brain after 120 mins by liquid scintillation counting; design: species or system Cavia porcellus

Sequence of Sigma non-opioid intracellular receptor 1 (Q9R0C9 whole entry): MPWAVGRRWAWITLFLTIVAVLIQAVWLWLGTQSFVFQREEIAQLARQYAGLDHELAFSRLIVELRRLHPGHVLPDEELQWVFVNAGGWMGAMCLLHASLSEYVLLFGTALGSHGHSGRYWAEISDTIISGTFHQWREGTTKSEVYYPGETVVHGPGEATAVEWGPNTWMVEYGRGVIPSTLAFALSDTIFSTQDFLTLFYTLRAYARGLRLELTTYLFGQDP

Ki [1] [nM]	Ratio Ki [2]	Ki [3] [nM]	SMILES
21.2	> 140	> 3000	CCN(CC1CCN(Cc2ccccc2)CC1)C(=O)c1ccco1
13.6	> 40	> 500	CCN(CC1CCN(Cc2ccc(Cl)cc2)CC1)C(=O)c1ccco1
373	–	–	CCN(CC1CCN(Cc2ccc(Cl)cc2)CC1)C(=O)c1ccc(-c2ccccc2)cc1
66.8	–	–	CCN(CC1CCN(Cc2ccccc2)CC1)C(=O)c1ccccc1
301	> 1	> 500	CCN(CC1CCN(Cc2ccccc2)CC1)C(=O)c1ccc(-c2ccccc2)cc1
215	> 4	> 1000	CCN(CC1CCN(Cc2ccc(Cl)cc2)CC1)C(=O)c1cccc2ccccc12
155	–	–	CCN(CC1CCN(Cc2ccc(Cl)cc2)CC1)C(=O)c1ccccc1
160	> 3	> 500	CCN(CC1CCN(Cc2ccccc2)CC1)C(=O)c1ccc(C)cc1
140	> 3	> 500	CCN(CC1CCN(Cc2ccc(Cl)cc2)CC1)C(=O)c1ccc(C)cc1
91	> 11	> 1000	CCN(CC1CCN(Cc2ccc(Cl)cc2)CC1)C(=O)c1ccc(Cl)cc1
225	–	–	CCN(CC1CCN(Cc2ccc(Cl)cc2)CC1)C(=O)c1ccc2ccccc2c1
217	1.3	283	CCN(CC1CCN(Cc2ccc(Cl)cc2)CC1)C(=O)c1ccc(OC)cc1
161	> 6	> 1000	CCN(CC1CCN(Cc2ccccc2)CC1)C(=O)c1cccc2ccccc12
192	–	–	CCN(CC1CCN(Cc2ccccc2)CC1)C(=O)c1ccc(OC)cc1
59.1	> 17	> 1000	CCN(CC1CCN(Cc2ccccc2)CC1)C(=O)c1ccc(Cl)cc1
198	1.36	270	CCN(CC1CCN(Cc2ccccc2)CC1)C(=O)c1ccc2ccccc2c1
